Structures are written as SMILES. Calls of active or inactive are those of the source. No rule for the calls is given here. Where only a bound is given, the exact number is not on record here.

Common to all, as to assay: CXCR6 receptor antagonists, dose response, cell-based, beta-arrestin, DiscoveRx, APJ panel, uHTS hits (AID 624129)
Experiment [1] addresses C-C chemokine receptor type 6 (Homo sapiens) (UniProt P51684). To be noted: CXCR6 beta-arrestin (DiscoveRx) antagonist cell assay.
Experiment [2] concerns the target C-X-C chemokine receptor type 6 (Homo sapiens) (UniProt O00574). The note with it: CXCR6 beta-arrestin (DiscoveRx) antagonist cell assay; for inhibition: CXCR6, run 1, dose range 2, at 80 µM (top of the series).
The target in experiment [3] is Beta-galactosidase (Escherichia coli) (UniProt Q8VNN2). To be noted: CXCR6 beta-arrestin (DiscoveRx) antagonist cell assay, b-galactosidase.
The target of experiment [4] is Apelin receptor (Homo sapiens) (UniProt P35414). To be noted: CXCR6 beta-arrestin (DiscoveRx) antagonist cell assay, APJ.
[5] abbreviates: CCR6, dose range 1, mean IC50 across replicates.
The mark [6] stands for this setting: CXCR6, dose range 1, mean IC50 across replicates.
Where [7] appears, read: dose range 1, mean IC50 across replicates.

Sequence of C-X-C chemokine receptor type 6 (Homo sapiens) (O00574 whole entry, looked up): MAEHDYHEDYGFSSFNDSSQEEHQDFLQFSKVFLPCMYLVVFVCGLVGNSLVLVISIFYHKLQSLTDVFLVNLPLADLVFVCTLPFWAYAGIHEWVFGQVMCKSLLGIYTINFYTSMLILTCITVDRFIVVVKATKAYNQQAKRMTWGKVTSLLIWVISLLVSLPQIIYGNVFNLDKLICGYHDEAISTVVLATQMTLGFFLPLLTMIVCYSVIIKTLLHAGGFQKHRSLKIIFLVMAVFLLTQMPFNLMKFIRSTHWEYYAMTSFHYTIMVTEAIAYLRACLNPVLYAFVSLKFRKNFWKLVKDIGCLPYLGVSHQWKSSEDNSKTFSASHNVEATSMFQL
Sequence of Beta-galactosidase (Escherichia coli) (Q8VNN2 whole entry, looked up): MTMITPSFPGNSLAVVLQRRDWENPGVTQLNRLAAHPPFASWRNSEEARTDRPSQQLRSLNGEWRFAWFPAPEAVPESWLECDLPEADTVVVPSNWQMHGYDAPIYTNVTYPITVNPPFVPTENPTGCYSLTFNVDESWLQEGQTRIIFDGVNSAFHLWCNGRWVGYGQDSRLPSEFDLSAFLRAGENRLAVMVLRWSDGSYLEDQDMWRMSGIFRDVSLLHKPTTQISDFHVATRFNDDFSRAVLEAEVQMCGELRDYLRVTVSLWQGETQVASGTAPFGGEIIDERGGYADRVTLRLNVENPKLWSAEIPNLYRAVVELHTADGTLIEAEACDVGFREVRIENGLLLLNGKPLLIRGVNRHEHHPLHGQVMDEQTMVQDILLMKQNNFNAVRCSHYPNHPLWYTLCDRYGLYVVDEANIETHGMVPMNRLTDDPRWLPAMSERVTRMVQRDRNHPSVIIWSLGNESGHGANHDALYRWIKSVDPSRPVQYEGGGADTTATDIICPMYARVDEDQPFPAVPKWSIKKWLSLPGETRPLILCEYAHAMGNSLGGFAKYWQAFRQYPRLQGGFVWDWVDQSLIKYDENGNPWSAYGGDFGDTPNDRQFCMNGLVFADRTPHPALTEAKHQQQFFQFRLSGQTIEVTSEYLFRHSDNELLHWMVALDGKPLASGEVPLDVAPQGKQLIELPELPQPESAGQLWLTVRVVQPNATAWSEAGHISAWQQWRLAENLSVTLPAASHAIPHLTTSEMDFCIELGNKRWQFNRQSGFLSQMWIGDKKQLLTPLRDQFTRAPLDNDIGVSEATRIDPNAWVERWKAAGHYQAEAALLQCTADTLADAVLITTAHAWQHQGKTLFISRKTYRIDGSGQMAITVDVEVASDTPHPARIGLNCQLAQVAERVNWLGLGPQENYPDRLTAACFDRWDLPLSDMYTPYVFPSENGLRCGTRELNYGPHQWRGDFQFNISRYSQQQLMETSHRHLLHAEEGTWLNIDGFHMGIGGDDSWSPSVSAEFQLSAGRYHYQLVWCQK

One may read the IC50 as the point on the concentration scale where inhibition reaches its midpoint. The term inhibition denotes the drop in the measured response relative to a control, in per cent. For `COC(CNC(=O)c1cc(C(=O)c2c(-c3c(Cl)cccc3Cl)noc2C)c[nH]1)OC`, the IC50 was 16.9 µM in experiment [1] (CCR6, dose range 1); 24.1 µM in experiment [1] (setting [5]); 31.4 µM in experiment [1] (CCR6, run 2, dose range 1); 15.7 µM in experiment [2] (setting [6]); 18.6 µM in experiment [2] (CXCR6, run 2, dose range 1); > 80 µM (inactive) in experiment [3] (dose range 1). Besides, the IC50 in experiment [3] (setting [7]) was above 80 µM; in experiment [4] (dose range 1), 5.2 µM; in experiment [4] (setting [7]) it was 9.29 µM; in experiment [4] (run 2, dose range 1), 10.7 µM; in experiment [4] (run 3, dose range 1), 12 µM. Besides, the IC50 entry in experiment [2] (CXCR6, dose range 1) was “inactive”. The inhibition in experiment [2] turned out to be 80.7%.
As to `CNc1cc(Cl)c2nonc2c1[N+](=O)[O-]`, the IC50 in experiment [1] (CCR6, dose range 1) was 3.13 µM; in experiment [1] (setting [5]) it was 3.29 µM; in experiment [1] (CCR6, run 2, dose range 1), 3.46 µM; in experiment [2] (CXCR6, dose range 1), 3.61 µM; in experiment [2] (setting [6]), 3.39 µM; in experiment [2] (CXCR6, run 1, dose range 2), 3.02 µM. Besides, the IC50 in experiment [2] (CXCR6, run 2, dose range 1) was 4.12 µM; in experiment [2] (CXCR6, run 2, dose range 2), 2.83 µM; in experiment [3] (dose range 1), > 80 µM (inactive); in experiment [3] (setting [7]), above 80 µM; in experiment [4] (dose range 1), 5.88 µM; in experiment [4] (setting [7]), 8.61 µM. Moreover, the IC50 in experiment [4] (run 2, dose range 1) amounted to 4.89 µM; in experiment [4] (run 3, dose range 1), 15.1 µM.
As for `CC(C)N=C1CCCC1C(=S)SSC(=S)C1CCCC1=NC(C)C` (stereo not given), the IC50 is 9.02 µM in experiment [1] (CCR6, dose range 1); 10.2 µM in experiment [1] (setting [5]); 11.4 µM in experiment [1] (CCR6, run 2, dose range 1); 11.4 µM in experiment [2] (setting [6]); 4.08 µM in experiment [2] (CXCR6, run 1, dose range 2); 17.8 µM in experiment [2] (CXCR6, run 2, dose range 1). Further, the IC50 in experiment [2] (CXCR6, run 2, dose range 2) was 4.99 µM; in experiment [3] (dose range 1) it was > 80 µM (inactive); in experiment [3] (setting [7]) it was above 80 µM; in experiment [4] (dose range 1), 13.8 µM; in experiment [4] (setting [7]), 23.7 µM; in experiment [4] (run 2, dose range 1), 21.8 µM. This compound also had an IC50 in experiment [4] (run 3, dose range 1) of 35.4 µM. In experiment [2] (CXCR6, dose range 1), the IC50 entry is “inactive”.
Take `Cc1[nH][nH]c(=O)c1C(c1c(C)[nH][nH]c1=O)c1cn(Cc2ccc(F)cc2)c2ccccc12`: the IC50 in experiment [1] (CCR6, dose range 1) is 23 µM; in experiment [1] (setting [5]) it was 21.6 µM; in experiment [1] (CCR6, run 2, dose range 1), 20.2 µM; in experiment [2] (setting [6]) it was 28.2 µM; in experiment [2] (CXCR6, run 2, dose range 1) it was 27.7 µM; in experiment [3] (dose range 1), > 80 µM (inactive). Moreover, the 50% inhibitory concentration (IC50) in experiment [3] (setting [7]) was above 80 µM; in experiment [4] (dose range 1), 34.9 µM; in experiment [4] (setting [7]), 33.3 µM; in experiment [4] (run 2, dose range 1) it was 32.9 µM; in experiment [4] (run 3, dose range 1), 32 µM. The IC50 entry in experiment [2] (CXCR6, dose range 1) was “inactive”. In addition, the inhibition in experiment [2] is 97.7%.
For `CCn1c(Cl)c(C=O)s/c1=N\S(=O)(=O)c1ccccc1`, the half-inhibitory concentration (IC50) in experiment [1] (CCR6, dose range 1) was 3.16 µM; in experiment [1] (setting [5]), 3.63 µM; in experiment [1] (CCR6, run 2, dose range 1), 4.09 µM; in experiment [2] (CXCR6, dose range 1) it was 4.78 µM; in experiment [2] (setting [6]), 4.9 µM; in experiment [2] (CXCR6, run 1, dose range 2), 5.1 µM. Further, the IC50 is 5.14 µM in experiment [2] (CXCR6, run 2, dose range 1); 4.58 µM in experiment [2] (CXCR6, run 2, dose range 2); > 80 µM (inactive) in experiment [3] (dose range 1); above 80 µM in experiment [3] (setting [7]); 6.85 µM in experiment [4] (dose range 1); 5.99 µM in experiment [4] (setting [7]). Moreover, the IC50 in experiment [4] (run 2, dose range 1) was determined as 5.55 µM; in experiment [4] (run 3, dose range 1), 5.57 µM.
On to `COc1ccc(N2C(=O)CC(Sc3nnnn3-c3ccc(F)cc3)C2=O)cc1` (stereo not given), for which the IC50 in experiment [1] (CCR6, dose range 1) was 8.24 µM; in experiment [1] (setting [5]), 9.45 µM; in experiment [1] (CCR6, run 2, dose range 1), 10.7 µM; in experiment [2] (CXCR6, dose range 1), > 80 µM (inactive); in experiment [2] (setting [6]) it was above 80 µM; in experiment [2] (CXCR6, run 2, dose range 1), above 80 µM. In addition, the IC50 in experiment [3] (dose range 1) was > 80 µM (inactive); in experiment [3] (setting [7]), above 80 µM; in experiment [4] (dose range 1), 10 µM; in experiment [4] (setting [7]), 10 µM; in experiment [4] (run 2, dose range 1) it was above 80 µM; in experiment [4] (run 3, dose range 1) it was above 80 µM. Moreover, in experiment [2], the inhibition was -50.3%.
Consider `CCOC(=O)c1c(SCCN2CCCC2)n(-c2ccccc2)c(=S)n(-c2ccccc2)c1=O`, for which the IC50 in experiment [1] (setting [5]) is above 80 µM; in experiment [1] (CCR6, run 2, dose range 1), above 80 µM; in experiment [2] (CXCR6, dose range 1), > 80 µM (inactive); in experiment [2] (setting [6]) it was above 80 µM; in experiment [2] (CXCR6, run 2, dose range 1) it was above 80 µM; in experiment [3] (dose range 1), > 80 µM (inactive). For the same compound, the IC50 in experiment [3] (setting [7]) is above 80 µM; in experiment [4] (setting [7]), above 80 µM; in experiment [4] (run 2, dose range 1), above 80 µM; in experiment [4] (run 3, dose range 1), above 80 µM. The inhibition in experiment [2] was -8.52%.
As for `CNC(=O)c1nnsc1S(=O)(=O)c1ccc(Cl)cc1`, the IC50 in experiment [1] (CCR6, dose range 1) was 10.5 µM; in experiment [1] (setting [5]), 12 µM; in experiment [1] (CCR6, run 2, dose range 1), 13.5 µM; in experiment [2] (setting [6]), 12.1 µM; in experiment [2] (CXCR6, run 2, dose range 1), 10.7 µM; in experiment [3] (dose range 1) it was > 80 µM (inactive). Moreover, the IC50 was above 80 µM in experiment [3] (setting [7]); 14.3 µM in experiment [4] (dose range 1); 15.7 µM in experiment [4] (setting [7]); 16.1 µM in experiment [4] (run 2, dose range 1); 16.5 µM in experiment [4] (run 3, dose range 1). Also, the IC50 entry in experiment [2] (CXCR6, dose range 1) was “inactive”. Also, the inhibition in experiment [2] is 116%.

The values are drawn from PubChem BioAssay AID624129 (Sanford-Burnham Center for Chemical Genomics, 2012).
